Read-outs that look alike come from different tables or passages of the source.
Columns and labels:
[1] = system: Sheep choroid plexus (SCP) cells; experiment: Toxicity of compounds in control wells without virus, graded morphologically; format: cell-based; design: key: 0: no toxicity; 4: total cell lysates; conditions: 0 to 4 scale, Table 1
Procedure: (§1) Sheep choroid plexus (SCP) cells were obtained from American Type Culture Collection (ATCC) catalogue number CRL 1700 and were routinely passaged in vitro in Dulbecco's Modified Eagles (DME) medium supplemented with 20% fetal bovine serum (FBS). SCP cells were passaged once per week at a 1:2 or 1:3 split ratio. Visna was titrated by plaque assay in six-well plates. Virus pools were stored at -70° C.
(§2) SCP cells were cultured in 6-well plates to confluence. Wells were washed two times with serum free Minimal Essential Medium (MEM) to remove FBS. 0.2 ml of virus was added per well in MEM supplemented with 4 mM glutamine and gentamycin. After 1 hour adsorption, the virus was aspirated from each well. The appropriate concentration of each compound in 5 ml of Medium 199 (M-199) supplemented With 2% lamb serum, 4 mM glutamine, 0.5% agarose and gentamycin was added to each well. Cultures were incubated at 37° C. in a humidified 5% CO2 incubator for 3-4 weeks. To terminate the test: cultures were fixed in 10% formalin, the agar removed, the monolayers stained with 1% crystal violet and plaques counted. Each compound concentration was run in triplicate. […] 0 is no toxicity observed while 4 is total lysing of the cell monolayer.

visna virus = experiment: Plaque reduction assay, inhibition of visna virus in vitro; format: cell-based; design: key to Antiviral Activity: A: active compound; I: inactive compound; conditions: Table 1
From the text: Visna virus, a lentivirus genetically very similar to the AIDS virus, is pathogenic for sheep and goats. See Sonigo et al., Cell 42, 369-382 (1985); Haase, Nature 322, 130-136 (1986). Inhibition of visna virus replication in vitro as a useful model for human immunodeficiency virus (HIV) and its inhibition by test compounds has been described by Franket al., Antimicrobial Agents and Chemotherapy 31 (9), 1369-1374 (1987). The N-butyl derivative of 1,5-dideoxy-1,5-imino-D-glucitol, also referred to as n-butyl-deoxynojirimycin (N-Bu-DNJ), was used as a control standard for comparison with various novel compounds of this invention.
Various compounds as prepared above were tested for inhibition of visna virus in vitro in a plaque reduction assay as follows:
as §1, §2

[2] = system: Sheep choroid plexus (SCP) cells; experiment: Toxicity of compounds in control wells without virus, graded morphologically; format: cell-based; conditions: 0 to 4 scale, Table 1
Procedure: as §1, §2

HIV = conditions: cited from earlier work; for HIV inhibitory activity: disclosed in earlier patents/applications
[3] = Pharmacokinetic and metabolism study, Rhesus monkey; format: in vivo; conditions: for metabolic profiles of either radiolabeled compound (pro-drug, metabolite): monkey, oral, plasma and urine
Procedure: (§3) The parent tetrabutyrate compound consequently serves as an antivirally effective and useful pro-drug of the latter compound to which it is metabolized in the gut. […] The parent pro-drug was not detected. […] The oral bioactivity of the metabolite compound, measured as [^14 C]-metabolite compound, was determined to be between 28% and 50% in the Rhesus monkey, depending on the vehicle used (e.g., 0.5% methyl cellulose and 0.1% polysorbate in water). […] The blood levels of the metabolite compound, measured as part of a long term SIV infected monkey efficacy study, following oral dosing (high dose 750 mg/kg, low dose 250 mg/kg, administered every eight hours) with the pro-drug, yielded mean trough (cmin) plasma blood levels of the metabolite compound at eight hours post dosing of approximately 10 μg/mL and 6.8 μg/mL for the high and low doses, respectively.

Diarrheagenic effect = format: in vivo, monkey; conditions: normal, uninfected monkeys
[4] = Pharmacokinetic and metabolism study, rat; format: in vivo
Procedure: as §3

sucrase = experiment: Sucrase inhibition locally in the gut; format: in vivo, monkey; conditions: normal, uninfected monkeys
[5] = oral [14C] pro-drug, Rhesus monkey

SMILES | Antiviral Activity (visna virus; 0.01 mM) | Antiviral Activity (visna virus; 0.1 mM) | Toxicity ([1]; 0.001 mM) | Toxicity ([1]; 0.01 mM) | HIV inhibitory activity (HIV) | Antiviral Activity (visna virus; 0.001 mM) | Antiviral Activity (visna virus; 1.0 mM) | Toxicity ([2]; 0.1 mM) | Toxicity ([1]; 1.0 mM) | further results
CCCCN1C[C@H](OC(=O)CC)[C@@H](OC(=O)CC)[C@H](OC(=O)CC)[C@H]1COC(=O)CC [Example 17, 1,5-(Butylimino)-1,5-dideoxy-D-glucitol, tetrapropionate] | A | Toxic |  |  |  |  |  |  |  | Toxicity ([1]; 0.1 mM): 4; Toxicity ([2]; 0.01 mM): 2
CCCCN1C[C@H](O)[C@@H](O)[C@H](O)[C@H]1CO [N-Bu-DNJ, 1,5-(Butylimino)-1,5-dideoxy-D-glucitol, reference compound] | I | A | 0 | 0 | HIV inhibitory activity | I | A | 1 |  | HIV inhibitory activity (HIV; listed as N-butyl derivative of deoxynojirimycin): substantially more effective anti-HIV activity; Toxicity ([2]; 1.0 mM): 2; metabolic profiles of either radiolabeled compound (pro-drug, metabolite) [3]: the same in plasma and urine
CN1C[C@H](O)[C@@H](O)[C@H](O)[C@H]1CO [Example 9, 1,5-(Methylimino)-1,5-dideoxy-D-glucitol] |  |  |  |  | HIV inhibitory activity |  |  |  |  | 
CC(=O)OC[C@@H]1[C@@H](OC(C)=O)[C@H](OC(C)=O)[C@@H](OC(C)=O)CN1C(=O)CCc1ccccc1 [Example 20, 1,5-(Hydrocinnamoylimino)-1,5-dideoxy-D-glucitol, tetraacetate] | A | A |  | 0 |  |  | A | 1 |  | Toxicity ([2]; 1.0 mM): 2
CCCCCCCCCN1C[C@H](OC(C)=O)[C@@H](OC(C)=O)[C@H](OC(C)=O)[C@H]1COC(C)=O [Example 14, 1,5-(Nonylimino)-1,5-dideoxy-D-glucitol, tetraacetate] | A | A | 0 | 0 |  | A | Toxic | 2 | 4 | 
CCCCN1C[C@H](OC(=O)CCC)[C@@H](OC(=O)CCC)[C@H](OC(=O)CCC)[C@H]1COC(=O)CCC [Example 16, 1,5-(Butylimino)-1,5-dideoxy-D-glucitol, tetrabutyrate] | A | A | 0 | 0 |  | A | Toxic | 1 | 4 | diarrheagenic results (Diarrheagenic effect): negative diarrheagenic results; metabolic transformation in vivo [4]: controlled, sustained levels of a metabolite; parent pro-drug in plasma ([4]; oral [14C] pro-drug): not detected; radiolabeled compound in plasma after oral pro-drug ([4]; oral [14C] pro-drug): yielded only [^14 C]SC-metabolite compound in the plasma; parent pro-drug in portal plasma ([4]; oral, portal plasma): no parent pro-drug detected; inhibition of sucrase locally in the gut (sucrase): does not significantly inhibit sucrase locally in the gut; metabolic transformation in vivo ([3]; Rhesus monkey): controlled, sustained levels of a metabolite; metabolic profiles of either radiolabeled compound (pro-drug, metabolite) [3]: the same in plasma and urine; parent pro-drug in plasma [3, 5]: not detected; radiolabeled compound in plasma after oral pro-drug [3, 5]: yielded only [^14 C]SC-metabolite compound in the plasma
CCCCN1C[C@H](OC(=O)c2ccccc2)[C@@H](OC(=O)c2ccccc2)[C@H](OC(=O)c2ccccc2)[C@H]1COC(=O)c1ccccc1 [Example 18, 1,5-(Butylimino)-1,5-dideoxy-D-glucitol, tetrabenzoate] |  | A |  |  |  |  | A | 1 | 0 | 
Cc1cn([C@H]2C[C@H](N=[N+]=[N-])[C@@H](CO)O2)c(=O)[nH]c1=O [AZT, 3'-azido-3'-deoxythymidine] |  |  |  |  |  |  |  |  |  | inhibition of virus replication in vitro (HIV; in vitro): inhibit replication of the virus in vitro
OC[C@H]1NC[C@H](O)[C@@H](O)[C@@H]1O [deoxynojirimycin, 1,5-dideoxy-1,5-imino-D-glucitol] |  |  |  |  | HIV inhibitory activity |  |  |  |  | 
CCCCN1C[C@H](OC(=O)C(C)C)[C@@H](OC(=O)C(C)C)[C@H](OC(=O)C(C)C)[C@H]1COC(=O)C(C)C [Example 22, 1,5-(Butylimino)-1,5-dideoxy-D-glucitol, tetraisobutyrate] | A | A |  | 0 |  |  | A |  | 0 | Toxicity ([1]; 0.1 mM): 0

— patent US5310745A, “Antiviral compounds” (priority 1992, dated 1994)
